Measured values reported in patent US7368470B2, “Substituted 3-pyrrolidine-indole derivatives” (Gruenenthal GmbH, priority 2003, dated 2008).

Legend:
[1] = tested on: binding site 2 of the sodium channel (batrachotoxin (BTX) binding site); assay: Binding test on the sodium channel, binding site 2 (BTX bond), [3H]-batrachotoxinin A20 α-benzoate as ligand; design: species or system rat; conditions: for BTX bond, % inhibition [10 μM]: rat cerebrocortex synaptosomes, ligand 10 nM, 25° C., 120 min
[2] = target: T1, serotonin reuptake (5HT uptake) (Rattus norvegicus, UniProt P31652); assay: Serotonin reuptake inhibition (5HT uptake inhibition) in rat brain synaptosomes; assay type: biochemical; conditions: synaptosomes from male rats' brains
T1 construct: These vesicular particles were isolated from the hypothalamus of male rats' brains for 5HT uptake; from tissue; host or cells: rat brain synaptosomes (P2 fraction; cerebral cortex / hypothalamus of male rats)
From the text: a) Tests on Serotonin Reuptake Inhibition
In order to be able to carry out these in vitro studies, synaptosomes from rats' cerebral cortices were freshly isolated. A “P2” fraction prepared according to Gray and Whittaker's instructions (E. G. Gray and V. P. Whittaker (1962) J. Anat. 76, 79-88) was used in each case. These vesicular particles were isolated from the hypothalamus of male rats' brains for 5HT uptake.
A detailed description of the method may be found in the literature (M. Ch. Frink, H.-H. Hennies, W. Englberger, M. Haurand and B. Wilffert (1996) Arzneim.-Forsch./Drug Res. 46 (III), 11, 1029-1036).

T1 sequence (P31652 whole entry): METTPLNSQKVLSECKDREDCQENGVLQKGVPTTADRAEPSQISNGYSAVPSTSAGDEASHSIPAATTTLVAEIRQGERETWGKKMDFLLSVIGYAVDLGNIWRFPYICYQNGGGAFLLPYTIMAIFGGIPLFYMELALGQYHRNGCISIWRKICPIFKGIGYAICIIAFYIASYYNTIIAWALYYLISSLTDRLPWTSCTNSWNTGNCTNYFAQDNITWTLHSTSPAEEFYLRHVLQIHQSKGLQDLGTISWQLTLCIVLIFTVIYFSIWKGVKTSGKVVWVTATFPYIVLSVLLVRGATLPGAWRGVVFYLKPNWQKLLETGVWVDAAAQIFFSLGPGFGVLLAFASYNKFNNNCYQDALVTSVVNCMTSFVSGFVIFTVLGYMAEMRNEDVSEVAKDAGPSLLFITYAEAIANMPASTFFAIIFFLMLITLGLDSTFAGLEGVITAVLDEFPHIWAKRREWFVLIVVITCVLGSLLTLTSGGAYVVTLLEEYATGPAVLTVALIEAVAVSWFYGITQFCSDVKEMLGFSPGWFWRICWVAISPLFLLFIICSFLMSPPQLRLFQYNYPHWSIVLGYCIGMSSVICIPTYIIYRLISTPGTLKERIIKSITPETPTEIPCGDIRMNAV

| Compound | BTX bond, % inhibition [10 μM] [1] | inhibition at 10 µM [2] | other results |
| --- | --- | --- | --- |
| CCCc1ccc(C(=O)N2CCC(c3cn(Cc4ccc(Br)cc4)c4ccccc34)C2)cc1 (stereo not shown) [Compound 7, {3-[1-(4-bromo-benzyl)-1H-indol-3-yl]-pyrrolidin-1-yl}-(4-propyl-phenyl)-methanone] | 89% | – | – |
| COc1cccc(Cn2cc(C3CCN(C(=O)C=Cc4ccccc4)C3)c3ccccc32)c1 (stereo not shown) [Compound 4, 1-{3-[1-(3-methoxy-benzyl)-1H-indol-3-yl]-pyrrolidin-1-yl}-3-phenyl-propenone] | 92% | – | – |
| O=C(C1CCC1)N1CCC(c2c[nH]c3ccccc23)C1 (stereo not shown) [Compound 22, cyclobutyl-[3-(1H-indol-3-yl)-pyrrolidin-1-yl]-methanone] | – | 58% | – |
| Cn1cc(C2CCN(C(=O)c3c(F)c(F)c(F)c(F)c3F)C2)c2ccccc21 (stereo not shown) [Compound 47, [3-(1-methyl-1H-indol-3-yl)-pyrrolidin-1-yl]-pentafluorophenyl-methanone] | – | 46% | – |
| CCn1cc(C2CCN(C(=O)c3ccc(Cl)c(Cl)c3)C2)c2ccccc21 (stereo not shown) [Compound 15, (3,4-dichloro-phenyl)-[3-(1-ethyl-1H-indol-3-yl)-pyrrolidin-1-yl]-methanone] | 80% | – | – |
| COc1ccc(C(=O)N2CCC(c3cn(CCC(C)C)c4ccccc34)C2)cc1OC (stereo not shown) [Compound 2, (3,4-dimethoxy-phenyl)-{3-[1-(3-methyl-butyl)-1H-indol-3-yl]-pyrrolidin-1-yl}-methanone] | 93% | – | – |
| CN(C)C(=O)Cn1cc(C2CCN(C(=O)NCc3ccc(Cl)c(Cl)c3)C2)c2ccccc21 (stereo not shown) [Compound 17, 3-(1-dimethylcarbamoylmethyl-1H-indol-3-yl)-pyrrolidine-1-carboxylic acid 3,4-dichloro-benzylamide] | – | 43% | – |
| CC(Oc1ccccc1)C(=O)N1CCC(c2cn(Cc3ccc(C#N)cc3)c3ccccc23)C1 (stereo not shown) [Compound 13, 4-(3-[1-(2-phenoxy-propionyl)-pyrrolidin-3-yl]-indol-1-ylmethyl}-benzonitrile] | 82% | – | – |
| O=C(CN1CCC(c2cn(Cc3ccc(F)c(F)c3)c3ccccc23)C1)Nc1csc(C(F)(F)F)c1-c1ccccc1 (stereo not shown) [Compound 53, 2-{3-[1-(3,4-difluoro-benzyl)-1H-indol-3-yl]-pyrrolidin-1-yl}-N-(4-phenyl-5-trifluiommethyl-thiophen-3-yl)-acetamide] | – | – | 5HT uptake, % inhibition [10 μM] [2]: 55% |
| CN(C)C(=O)Cn1cc(C2CCN(S(=O)(=O)Cc3ccccc3)C2)c2ccccc21 (stereo not shown) [Compound 30, N,N-dimethyl-2-[3-(1-phenylmethanesulphonyl-pyrrolidin-3-yl)-indol-1-yl]-acetamide] | – | 47% | – |
| CCn1cc(C2CCN(C(=O)c3ccc(C(F)(F)F)c(F)c3)C2)c2ccccc21 (stereo not shown) [Compound 9] | 84% | – | – |
| CCCCn1cc(C2CCN(C(=O)c3ccc(C(F)(F)F)nc3C)C2)c2ccccc21 (stereo not shown) [Compound 3] | 93% | – | – |
| Cc1cc(C)c(S(=O)(=O)N2CCC(c3cn(CC(=O)N(C)C)c4ccccc34)C2)c(C)c1 (stereo not shown) [Compound 14, N,N-dimethyl-2-{3-[1-(2,4,6-trimethyl-benzenesulphonyl)-pyrrolidin-3-yl]-indol-1-yl}-acetamide] | 80% | – | – |
| Cc1cc(C)cc(Cn2cc(C3CCN(CC(=O)Nc4scc(C)c4C#N)C3)c3ccccc32)c1 (stereo not shown) [Compound 50, N-(3-cyano-4-methyl-thiophen-2-yl)-2-{3-[1-(3,5-dimethyl-benzyl)-1H-indol-3-yl]-pyrrolidin-1-yl}acetamide] | – | 83% | – |
| CCOc1ccccc1C(=O)N1CCC(c2cn(Cc3cccc(OC)c3)c3ccccc23)C1 (stereo not shown) [Compound 8, (2-ethoxy-phenyl)-{3-[1-(3-methoxy-benzyl)-1H-indol-3-yl]-pyrrolidin-1-yl}-methanone] | 88% | – | – |
| [^3H]-batrachotoxinin A20 α-benzoate [reference compound] | – | – | Kd ([1]; radioligand, mean±SEM, N=3 independent test series, read-out: KD value for this binding site): 24.6 ± 1.56 nM |
| CCCc1ccc(C(=O)N2CCC(c3cn(Cc4ccc(C(F)(F)F)cc4)c4ccccc34)C2)cc1 (stereo not shown) [Compound 1, (4-propyl-phenyl)-{3-[1-(4-trifluoromethyl-benzyl)-1H-indol-3-yl]-pyrrolidin-1-yl}-methanone] | 95% | – | – |
| COc1cccc(Cn2cc(C3CCN(C(=O)C(C)Oc4ccccc4)C3)c3ccccc32)c1 (stereo not shown) [Compound 11, 1-{3-[1-(3-methoxy-benzyl)-1H-indol-3-yl]-pyrrolidin-1-yl}-2-phenoxy-propan-1-one] | 83% | – | – |
| O=C(c1cccc(F)c1F)N1CCC(c2cn(Cc3ccc(C(F)(F)F)cc3)c3ccccc23)C1 (stereo not shown) [Compound 5, (2,3-difluoro-phenyl)-{3-[1-(4-trifluoromethyl-benzyl)-1H-indol-3-yl]-pyrrolidin-1-yl}-methanone] | 92% | – | – |
| CN(C)C(=O)Cn1cc(C2CCN(C(=O)c3ccccn3)C2)c2ccccc21 (stereo not shown) [Compound 21, N,N-dimethyl-2-{3-[1-(pyridin-2-carbonyl)-pyrrolidin-3-yl]-indol-1-yl}-acetamide] | – | 84% | – |
| CCn1cc(C2CCN(C(=O)c3cccc(C)c3C)C2)c2ccccc21 (stereo not shown) [Compound 10, (2,3-dimethyl-phenyl)-[3-(1-ethyl-1H-indol-3-yl)-pyrrolidin-1-yl]-methanone] | 83% | – | – |
| CCn1cc(C2CCN(C(=O)COc3cccc(Cl)c3)C2)c2ccccc21 (stereo not shown) [Compound 12, 2-(3-chloro-phenoxy)-1-[3-(1-ethyl-1H-indol-3-yl)-pyrrolidin-1-yl]-ethanone] | 83% | – | – |
| CCN(CC)C(=O)Cn1cc(C2CCN(C(=O)C3CCCC3)C2)c2ccccc21 (stereo not shown) [Compound 25, 2-1[3-(1-cyclopentanecarbonyl-pyrrolidin-3-yl)-indol-1-yl]-N,N-diethyl acetamide] | – | – | 5HT uptake, % inhibition [10 μM] [2]: 80% |
| CCCCC(=O)N1CCC(c2cn(CC(=O)N(CC)CC)c3ccccc23)C1 (stereo not shown) [Compound 23, N,N-diethyl-2-[3-(1-pentanoyl-pyrrolidin-3-yl)-indol-1-yl]-acetamide] | – | 49% | – |
| O=C(c1ccccc1Cl)N1CCC(c2c[nH]c3ccccc23)C1 (stereo not shown) [Compound 27, (2-chloro-phenyl)-[3-(1H-indol-3-yl)-pyrrolidin-1-yl]-methanone] | – | 70% | – |
| COc1ccc(OC)c(CC(=O)N2CCC(c3cn(CC(=O)N(C)C)c4ccccc34)C2)c1 (stereo not shown) [Compound 19, 2-(3-{1-[2-(2,5-dimethoxy-phenyl)-acetyl]-pyrrolidin-3-yl}-indol-1-yl)-N,N-dimethyl-acetamide] | – | 86% | – |
| Cc1ccc(S(=O)(=O)NC(Cc2ccccc2)C(=O)N2CCC(c3cn(CC(=O)N(C)C)c4ccccc34)C2)cc1 (stereo not shown) [Compound 29, N,N-dimethyl-2-(3-{1-[3-phenyl-2-(toluene-4-sulphonylamino)-propionyl]-pyrrolidin-3-yl)-indol-1-yl)-acetamide] | – | 63% | – |
| CC(C)CCn1cc(C2CCN(C(=O)c3ccc(C(C)(C)C)cc3)C2)c2ccccc21 (stereo not shown) [Compound 6, (4-tert-butyl-phenyl)-{3-[1-(3-methyl-butyl)-1H-indol-3-yl]-pyrrolidin-1-yl}-methanone] | 91% | – | – |
